Columns and labels:
supercoiled pUC19 DNA = test: DNA condensation of supercoiled pUC19 by gel electrophoresis; type: biochemical; details: for DNA condensation activity: supercoiled pUC19, at 100 μM; for DNA condensation / aggregation effect: supercoiled pUC19, tested at 100 and 500 μM, 37° C., 90 min
Method: Preparation of solutions. Tri-Click samples were initially prepared in DMF and further diluted in HEPES buffer (80 mM). Metal complexes of the Tri-Click series were prepared in-situ by co-incubating with copper(II) nitrate trihydrate, manganese (II) chloride tetrahydrate or zinc(II) acetate dihydrate for 30 min at 37° C. prior to DNA addition.
DNA nuclease and condensation studies. Reactions were carried out in 80 mM HEPES (pH 7.4) unless otherwise stated and followed the general procedure: a total volume of 20 μL with 25 mM NaCl, 400 ng pUC19 at varying concentrations of test compounds (0.25-500 μM) were incubated at 37° C. for either 90 min, 6 h, 12 h or 24 h. Reactions were quenched by adding 6× loading buffer (Fermentas) containing 10 mM Tris-HCl, 0.03% bromophenol blue, 0.03% xylene cyanole FF, 60% glycerol, 60 mM EDTA and samples were loaded onto an agarose gel (1.2%) containing 4 μL EtBr. Electrophoresis was completed at 70 V for 1 h in 1×TAE buffer. DNA studies conducted in the presence of reductant were supplemented with 1 mM Na-L-ascorbate and incubated at 37° C. for 30 min. Electrophoresis was carried out at 70 V for 90 minutes in 1×TAE buffer and photographed using a UV transilluminator.
The DNA recognition properties of the TC series, along with the control compounds, were probed using electrophoresis experiments with supercoiled pUC19 DNA. TC1 was examined across a wide concentration range and found to condense DNA at high concentrations between 250 and 500 μM (FIG. 2a, lanes 11-13).

poly[d(G-C)2] = test: Competitive ethidium bromide displacement assay, poly[d(G-C)2]; type: binding; details: EtBr displacement
Method: (§1) Competitive ethidium bromide displacement assay. The DNA binding affinity of the tripodal series was determined over a 2 h time period using calf-thymus DNA and synthetic alternating co-polymers poly[d(A-T)2)] and poly[d(G-C)2] by ethidium bromide fluorescence quenching in a similar manner to the high throughput method previously reported by Kellett et al. (McCann, M., McGinley, J., Ni, K., O'Connor, M., Kavanagh, K., McKee, V., Colleran, J., Devereux, M., Gathergood, N., Barron, N. et al. (2013) A new phenanthroline-oxazine ligand: synthesis, coordination chemistry and atypical DNA binding interaction. Chem. Commun., 49, 2341-2343). Each drug concentration was measured in triplicate, on at least two separate occasions, and the apparent binding constants were calculated using Kapp=Ke×12.6/C50 where Ke=9.5×10^6 M^−1.

poly[d(A-T)2] = test: Competitive ethidium bromide displacement assay, poly[d(A-T)2]; type: binding; details: A-T duplex polymer, EtBr displacement
Method: as §1

calf-thymus DNA (ctDNA) = test: Competitive ethidium bromide displacement assay, calf-thymus DNA; type: binding
Method: as §1

Compound	DNA condensation activity (supercoiled pUC19 DNA)	DNA condensation / aggregation effect (supercoiled pUC19 DNA)	further results
2,4,6-Tris-(1,2-ethanediamine)-mesitylene [T2]	highly active		
2,4,6-Tris-(1,3-propanediamine)-mesitylene [T3]	highly active		
Cc1c(CN)c(C)c(CN)c(C)c1CN [T1, 2,4,6-Tris-(aminomethyl)-mesitylene]		mildly condense pUC19	
Cc1c(Cn2cc(CN)nn2)c(C)c(Cn2cc(CN)nn2)c(C)c1Cn1cc(CN)nn1 [TC1, Tri-Click propargylamine]			apparent DNA binding constant (Kapp) (poly[d(G-C)2]): ~10^5 M^−1; apparent DNA binding constant (Kapp) (poly[d(A-T)2]): ~10^6 M^−1; apparent DNA binding constant (Kapp) (calf-thymus DNA (ctDNA); ctDNA, EtBr displacement): ~10^6 M^−1; binding affinity to duplex DNA (summary) (calf-thymus DNA (ctDNA); duplex DNA, conclusion summary over ctDNA and co-polymers): 10^5-10^6 M^−1
Cc1c(Cn2cc(-c3cccc(N(C)C)c3)nn2)c(C)c(Cn2cc(-c3cccc(N(C)C)c3)nn2)c(C)c1Cn1cc(-c2cccc(N(C)C)c2)nn1 [TC6, Tri-Click 3-ethynyl-N,N-dimethylaniline]		slight aggregation effects	
Cc1c(Cn2cc(-c3ccc(N(C)C)cc3)nn2)c(C)c(Cn2cc(-c3ccc(N(C)C)cc3)nn2)c(C)c1Cn1cc(-c2ccc(N(C)C)cc2)nn1 [TC7, Tri-Click 4-ethynyl-N,N-dimethylaniline]		slight aggregation effects	
